# Columns and labels:
# [1] = system: human gut microbiome samples; experiment: Combinatorial drug pools incubated with human gut microbiome samples, LC-qTOF MS; type: in vitro ADME; settings: for metabolism by the human gut microbiome (log2 fold change in amount of drug): 11 individuals randomly selected from the 60 studied, time span of 24 hours
# Text: Beginning with the 1,760 FDA-approved drugs in the MicroSource Pharmakon library, a single UHPLC-qTOF MS method was optimized (C18 column; methanol:water gradient; positive ionization mode) that maximizes the number of detected drugs while minimizing run time. […] These drugs, whose molecular weights vary from ˜155 to ˜800 Da, span a wide range of clinical indications. Many have limited or highly variable bioavailability. Other criteria (specific chemical groups, bioavailability, etc) may be used to select other reference drugs, or drugs may be selected from pre-clinical compound libraries. A computational simulation was performed to determine the number of inputs (drugs) that can be represented in increasing numbers of pools, as a function of changing parameters for replicates and overlap. One such pooling scheme assigns each of 271 drugs to a subset of 21 pools, such that each drug is placed in 4 pools but shares a pool with each other drug at most twice as shown in FIG. 5B. FIG. 5B illustrates combinatorial pooling of 271 drugs indicated in black circles into 21 pools (A-U). Pools V-X are no-drug controls. Other pooling schemes may alter the number of drugs, the number of pools, the number of pools each drug is placed in, or the overlap between the pooling patterns of each drug. […] Each of these pools was incubated with each of 60 human gut microbiome samples and 76 defined bacterial species/strains. Samples were collected over time. Liquid chromatography-coupled quadrupole time-of-flight mass spectrometry (MS) described above was used to quantify drug levels by targeted analysis. For each candidate drug-microbiome interaction, 4 pools provide quadruplicate replication for each drug in 4 distinct contexts of other drugs. The other pools serve as negative controls. In this manner, over 16,000 time-series profiles (271 drugs by 60 communities) were collected, each in quadruplicate, from only 21 drug pools.
# [2] = system: 76 defined human gut commensals; type: in vitro ADME
# Protocol: Using the combinatorial pooling method described above, each of the 21 drug pools was incubated, plus 3 no-drug control pools, with 76 defined human gut commensals from phyla shown in FIG. 8 grown in pure culture. Over 20,000 time-series profiles were collected, each in quadruplicate, of these specific drug-microbe interactions.
# [3] = patients taking 5-fluorouracil; before withdrawal from the market; cited from earlier work
# BT4554 = experiment: B. thetaiotaomicron loss-of-function screen, bt4554 deletion and complementation; type: in vitro ADME, Bacteroides thetaiotaomicron; settings: BT4554 dependence
# Text: Two independent strategies were developed to identify the microbiome-encoded DMEs responsible for these chemical transformations. For members of the Bacteroides (the most prominent genus in the human gut microbiome in the experiments), Proteobacteria, and other genetically tractable species, Insertion Sequencing (INSeq) is used to make mapped, arrayed transposon mutant libraries as described in Goodman 2009 and Goodman 2011. From these libraries, a representative set of mutants was identified that collectively include disruptions in most non-essential genes. Each mutant was incubated with the pool of drugs metabolized by the parent species. Genes required for drug metabolism by LC-MS were identified as above.
# 1,352 B. thetaiotaomicron mutants were selected from an arrayed library as described in Goodman 2009 that disrupt ˜70% of its non-essential genes. Each mutant was incubated with a pool of 30 drugs metabolized by this organism. Drug levels were measured over time as above. […] FIGS. 10A-C show two examples: one of these is brivudine, an antiviral whose primary metabolite (bromovinyluracil; BVU) is dangerously toxic for patients taking 5-fluorouracil, a principal therapy for colorectal cancer. With reference to FIGS. 10A-C, transposon mutants representing disruptions in 70% of B. thetaiotaomicron (Bt) non-essential genes were screened for metabolism of 30 drugs targeted by the parent strain.
# The contribution of microbial drug metabolism to serum drug and metabolite exposure was directly quantified by specifically modulating this activity in otherwise identical mice. To this end, the capacity of ten individual bacterial species was first determined, representing five major phyla that dominate the mammalian gut microbiota, for their capacity to convert BRV to BVU as illustrated in FIG. 14A. […]
# Frozen stocks are re-suspended in 4 mL pre-reduced GMM and incubated anaerobically at 37° C. for 14 h. […] Substrates and reaction product are extracted and quantified by LC-MS as described below. […]
# [4] = Liver S9 enzyme assay of conversion to BVU; type: in vitro ADME
# Protocol: Human and murine S9 liver fractions are purchased from Thermo Fisher Scientific (HMS9L and MSMCPL, respectively). Enzyme assays are performed for the deglycosylation of arabinosyluracil derivatives. In brief, assays are performed at 37° C. Reaction volumes are 150 μL with liver S9 fractions at 5 μg/μL and BRV or SRV at 100 μM in 10 mM phosphate buffer (pH 7.4). Reactions are initiated by addition of drugs to pre-warmed reaction mixture. 10 μL samples are collected and quenched in 10 μL acetonitrile on ice at 0, 5, 10, 15, 20, 30, 45, 60, 90, 120, 180, 270, and 360 min after initiation. Substrates and reaction product are extracted and quantified by LC-MS as described below.
smiles,measurement,setting,value
COc1ccc(/C=C/C(=O)Nc2ccccc2C(=O)O)cc1OC [tranilast],interpersonal variability of metabolism by gut microbiome,[1],one individual that metabolized the drug to a much greater extent than the others
same,metabolism by the human gut microbiome (log2 fold change in amount of drug),[1],metabolized by the human gut microbiome
CC(=O)OCC(=O)[C@@]12N=C(C)O[C@@H]1C[C@H]1[C@@H]3CCC4=CC(=O)C=C[C@]4(C)[C@H]3[C@@H](O)C[C@@]12C [deflazacort],metabolism by individual species,[2],most of the fast metabolizers of this drug are Bacteroides
"O=c1[nH]c(=O)n([C@@H]2O[C@H](CO)[C@@H](O)[C@@H]2O)cc1/C=C/Br [SRV, sorivudine]",patients killed by BVU from the drug,[3],18 patients
same,conversion of SRV to BVU by B. thetaiotaomicron,BT4554,slowly converts SRV to BVU in a BT4554-dependent manner
same,conversion of SRV to BVU,[4]; human S9 liver fractions,slowly converted
same,conversion of SRV to BVU,[4]; murine S9 liver fractions,slowly converted
CC(=O)OCC(CCn1cnc2cnc(N)nc21)COC(C)=O [Famcyclovir],metabolism by the human gut microbiome (log2 fold change in amount of drug),[1],metabolized by the human gut microbiome
Cc1nc2n(c(=O)c1CCN1CCC(c3noc4cc(F)ccc34)CC1)CCCC2 [risperidone],metabolism by the human gut microbiome (log2 fold change in amount of drug),[1],metabolized by the human gut microbiome

# Source: patent US20210183467A1, “SYSTEM AND METHOD FOR USING MICROBIOME TO DE-RISK DRUG DEVELOPMENT” (YALE UNIVERSITY, priority 2018, published 2021)
